According to patent US20250195513A1, “DEGRADATION OF IRAK4 BY CONJUGATION OF IRAK4 INHIBITORS WITH E3 LIGASE LIGAND AND METHODS OF USE” (BeiGene, Ltd., priority 2022, published 2025):

Columns and labels:
Format in all cases: cell-based
IRAK4 [1] = molecular target: T1, IRAK4 (Homo sapiens, UniProt Q9NWZ3); assay: IRAK4 Degradation Assay (Karpas299, HTRF/TR-FRET)
T1 construct: endogenous in cells; host or cells: Karpas299
T1 sequence (Q9NWZ3 1-460): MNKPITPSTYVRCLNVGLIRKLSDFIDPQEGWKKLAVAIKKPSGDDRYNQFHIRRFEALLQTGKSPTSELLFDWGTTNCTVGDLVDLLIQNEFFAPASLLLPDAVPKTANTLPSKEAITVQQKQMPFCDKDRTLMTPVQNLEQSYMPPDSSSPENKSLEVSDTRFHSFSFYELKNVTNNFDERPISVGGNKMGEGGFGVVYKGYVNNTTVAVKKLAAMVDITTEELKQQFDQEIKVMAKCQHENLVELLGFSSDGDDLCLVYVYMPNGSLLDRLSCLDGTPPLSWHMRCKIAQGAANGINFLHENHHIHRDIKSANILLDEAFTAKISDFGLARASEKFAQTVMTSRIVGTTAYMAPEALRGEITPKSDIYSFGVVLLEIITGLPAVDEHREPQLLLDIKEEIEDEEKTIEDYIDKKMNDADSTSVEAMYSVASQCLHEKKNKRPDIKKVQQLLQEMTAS
Summary of the method: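 Karpas299 cells at 0.2 million per well were exposed to serially diluted compounds for 24 h or 5 h, then lysed. IRAK4 remaining in lysates was quantified by HTRF (665/620 nm) after overnight antibody incubation at room temperature. Percent degradation was fitted to a four-parameter curve to give IC50 (DC50).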

[2] = system: TNF-α production in THP-1 cells; assay: TNF-α Production Assay in THP-1 Cells (LPS stimulated); details: for IC50 / Emax: THP-1, 24 h; for Emax: read-out: TNF-α (THP-1) 24 h IMax
Summary of the method: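 Cells (0.2 million/well) pretreated with compounds for 24 h, then stimulated with LPS at 1 μg/mL final for 24 h. TNF-α in culture supernatant quantified by TR-FRET immunoassay.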

[3] = system: IL-6 production in human PBMC; assay: IL-6 Production Assay in Human PBMC (LPS stimulated); details: for IC50 / Emax: Homo sapiens, 5 h; for Emax: read-out: IL-6 (PBMC) 5 h IMax
Description: Frozen human PBMC (AllCells) were thawed in RPMI 1640 medium (Thermo Scientific) supplemented with 10% heat-inactivated FBS (Thermo Scientific) and recovered at 37° C. overnight. The next day, PBMC were seeded into 96-well plates at the density of 0.2 million cells per well and treated with compounds for 24 h. Then lipopolysaccharide was added at the final concentration of 10 ng/mL for 5 h. Culture supernatant was collected for subsequent measurement of IL-6 concentration by a TR-FRET-based method (Degorce, François, et al. Current chemical genomics. 2009, 3: 22) as described by the manufacturer manual (Cisbio). FRET signals were measured with PHERAstar FSX reader (BMG Labtech).

IRAK4 [4] = molecular target: T1, IRAK4; assay: IRAK4 Degradation Assay with Human Serum (Karpas299, HTRF/TR-FRET); details: Karpas-299 in human serum, 24 hrs treatment; for DC50: read-out: IRAK4 degradtion with human serum assay DC50; for Dmax: read-out: IRAK4 degradtion with human serum assay Dmax (%)
Summary of the method: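 Karpas299 cells in human AB serum (0.2 million/well) treated with serial compound dilutions for 24 h. After lysis, IRAK4 quantified by HTRF (overnight antibody incubation at room temperature, 665/620 nm read). Degradation percentage fitted to four-parameter curve to give DC50.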

[5] = Karpas-299 cells, 5 h treatment, maximum percentage of degradation, read-out: IRAK4 in Karpas-299 (5 h) Dmax (%)
[6] = Karpas-299 cells, 5 h treatment, read-out: IRAK4 in Karpas-299 (5 h) DC50
[7] = Karpas-299 cells, 24 h treatment, maximum percentage of degradation, read-out: IRAK4 in Karpas-299 (24 h) Dmax (%)
[8] = Karpas-299 cells, 24 h treatment, read-out: IRAK4 in Karpas-299 (24 h) DC50
[9] = Homo sapiens, maximum inhibition

Row | Dmax (IRAK4 [1]; [5]) [%] | DC50 (IRAK4 [1]; [6]) [nM] | Dmax (IRAK4 [1]; [7]) [%] | DC50 (IRAK4 [1]; [8]) [nM] | IC50 ([2]; Homo sapiens) [nM] | DC50 (IRAK4 [1]; Degradation (Karpas-299), comparison table, Linker Type B, read-out: Compound (Linker Type B) DC50) [nM] | Dmax (IRAK4 [1]; Degradation (Karpas-299), comparison table, Linker Type B, read-out: Compound (Linker Type B) Dmax (%)) [%] | IC50 [2] [nM] | DC50 (IRAK4 [4]) [nM] | Dmax (IRAK4 [4]) [%] | SMILES | Emax [2, 9] [%] | IC50 [3] [nM] | Emax ([3]; maximum inhibition) [%] | TNF-α (THP-1) 24 h IMax ([2]; maximum inhibition) [%] | IL-6 (PBMC) 5 h IMax ([3]; maximum inhibition) [%]
1 | 95 | 2.3 | 99 | 0.4 | 19 | – | – | – | – | – | CC(C)(O)c1cc2nn([C@H]3CC[C@H](N4CCN(C(=O)C5CN(c6cc(F)c([C@H]7CCC(=O)NC7=O)c(F)c6)C5)CC4)CC3)cc2cc1NC(=O)c1cccc(C(F)(F)F)n1 [Example 38, N-(2-((1r,4r)-4-(4-(1-(4-((R)-2,6-dioxopiperidin-3-yl)-3,5-difluorophenyl)azetidine-3-carbonyl)piperazin-1-yl)cyclohexyl)-6-(2-hydroxypropan-2-yl)-2H-indazol-5-yl)-6-(trifluoromethyl)picolinamide] | 87 | 2.1 | 91 | – | –
2 | 93 | 9.1 | 96 | 0.7 | 34 | 0.7 | 96 | – | – | – | COc1cc2nn([C@H]3CC[C@H](N4CCN(C(=O)C5CN(c6ccc(N7CCC(=O)NC7=O)cc6)C5)CC4)CC3)cc2cc1NC(=O)c1cccc(C(F)(F)F)n1 [Example 37, N-(2-((1r,4r)-4-(4-(1-(4-(2,4-dioxotetrahydropyrimidin-1(2H)-yl)phenyl)azetidine-3-carbonyl)piperazin-1-yl)cyclohexyl)-6-methoxy-2H-indazol-5-yl)-6-(trifluoromethyl)picolinamide] | 82 | 11 | 90 | – | –
3 | 97 | 13 | 98 | 0.7 | 73 | – | – | – | – | – | [2H]C([2H])([2H])Oc1cc2nn([C@H]3CC[C@H](N4CCN(C(=O)C5CN(c6cc(F)c([C@H]7CCC(=O)NC7=O)c(F)c6)C5)CC4)CC3)cc2cc1NC(=O)c1cccc(C(F)(F)F)n1 [Example 165, N-(2-((1r,4r)-4-(4-(1-(4-((R)-2,6-dioxopiperidin-3-yl)-3,5-difluorophenyl)azetidine-3-carbonyl)piperazin-1-yl)cyclohexyl)-6-(methoxy-d3)-2H-indazol-5-yl)-6-(trifluoromethyl)picolinamide] | 82 | 7.9 | 91 | – | –
4 | 91 | 5 | 97 | 0.3 | 38 | – | – | – | – | – | CC(C)(O)c1cc2nn(C3CCN(C4CCN(C(=O)[C@@H]5CCN(c6cc(F)c([C@H]7CCC(=O)NC7=O)c(F)c6)C5)CC4)CC3)cc2cc1NC(=O)c1cccc(C(F)(F)F)n1 [Example 161, N-(2-(1′-((R)-1-(4-((R)-2,6-dioxopiperidin-3-yl)-3,5-difluorophenyl)pyrrolidine-3-carbonyl)-[1,4′-bipiperidin]-4-yl)-6-(2-hydroxypropan-2-yl)-2H-indazol-5-yl)-6-(trifluoromethyl)picolinamide] | 85 | 4.9 | 90 | – | –
5 | 81 | 18 | 95 | 3.6 | 77 | – | – | – | – | – | COc1cc2nn([C@H]3CC[C@H](CN4CCN(C(=O)[C@H]5CCN(c6ccc(N7CCC(=O)NC7=O)cc6)C5)CC4)CC3)cc2cc1NC(=O)c1cccn(C2CC2)c1=O [Example 34, 1-cyclopropyl-N-(2-((1S,4r)-4-((4-((S)-1-(4-(2,4-dioxotetrahydropyrimidin-1(2H)-yl)phenyl)pyrrolidine-3-carbonyl)piperazin-1-yl)methyl)cyclohexyl)-6-methoxy-2H-indazol-5-yl)-2-oxo-1,2-dihydropyridine-3-carboxamide] | 72 | 18 | 85 | – | –

More lines, now with the values behind:

Row | SMILES | Dmax (IRAK4 [1]; [5]) [%] | DC50 (IRAK4 [1]; [6]) [nM] | Dmax (IRAK4 [1]; [7]) [%] | DC50 (IRAK4 [1]; [8]) [nM] | IC50 ([2]; Homo sapiens) [nM] | DC50 (IRAK4 [1]; Degradation (Karpas-299), comparison table, Linker Type B, read-out: Compound (Linker Type B) DC50) [nM] | Dmax (IRAK4 [1]; Degradation (Karpas-299), comparison table, Linker Type B, read-out: Compound (Linker Type B) Dmax (%)) [%] | IC50 [2] [nM] | DC50 (IRAK4 [4]) [nM] | Dmax (IRAK4 [4]) [%] | Emax [2, 9] [%] | IC50 [3] [nM] | Emax ([3]; maximum inhibition) [%] | TNF-α (THP-1) 24 h IMax ([2]; maximum inhibition) [%] | IL-6 (PBMC) 5 h IMax ([3]; maximum inhibition) [%]
6 | O=C1CC[C@H](c2c(F)cc(N3CC[C@@H](C(=O)N4CCN([C@H]5CC[C@H](n6cc(NC(=O)c7coc(-c8ccnc(NCC(F)(F)F)c8)n7)c(C(F)F)n6)CC5)CC4)C3)cc2F)C(=O)N1 [Example 17, N-(3-(difluoromethyl)-1-((1R,4r)-4-(4-((R)-1-(4-((R)-2,6-dioxopiperidin-3-yl)-3,5-difluorophenyl)pyrrolidine-3-carbonyl)piperazin-1-yl)cyclohexyl)-1H-pyrazol-4-yl)-2-(2-((2,2,2-trifluoroethyl)amino)pyridin-4-yl)oxazole-4-carboxamide] | 96 | 8.8 | 97 | 2.2 | 34 | – | – | – | – | – | 87 | 6.7 | 93 | – | –
7 | CC[C@@H]1[C@H](F)C(=O)N[C@@H]1COc1nccc2cc(C(N)=O)c(OC)cc12 [PF-06650833] | – | – | – | – | – | – | – | 19 | – | – | – | – | – | 67 | <50
8 | NC(=O)c1nn([C@H]2CC[C@H](N3CCN(C(=O)[C@@H]4CCN(c5cc(F)c([C@H]6CCC(=O)NC6=O)c(F)c5)C4)CC3)CC2)cc1NC(=O)c1coc(-c2ccnc(NCC(F)(F)F)c2)n1 [Example 12, N-(3-carbamoyl-1-((1R,4r)-4-(4-((R)-1-(4-((R)-2,6-dioxopiperidin-3-yl)-3,5-difluorophenyl)pyrrolidine-3-carbonyl)piperazin-1-yl)cyclohexyl)-1H-pyrazol-4-yl)-2-(2-((2,2,2-trifluoroethyl)amino)pyridin-4-yl)oxazole-4-carboxamide] | 97 | 5.4 | 98 | 1.8 | 25 | – | – | – | – | – | 90 | 4.6 | 91 | – | –
9 | CC(C)(O)c1cc2nc(C3CCN(C4CCN(C(=O)C5CN(c6cc(F)c([C@H]7CCC(=O)NC7=O)c(F)c6)C5)CC4)CC3)cn2cc1NC(=O)c1cccc(C(F)(F)F)n1 [Example 126, (R)—N-(2-(1′-(1-(4-(2,6-dioxopiperidin-3-yl)-3,5-difluorophenyl)azetidine-3-carbonyl)-[1,4′-bipiperidin]-4-yl)-7-(2-hydroxypropan-2-yl)imidazo[1,2-a]pyridin-6-yl)-6-(trifluoromethyl)picolinamide] | 92 | 8.4 | 99 | 1.1 | 43 | – | – | – | – | – | 88 | 23 | 90 | – | –
10 | CC(C)(O)c1cc2nn([C@H]3CC[C@H](N4CCN([C@H]5C[C@H](c6ccc(N[C@H]7CCC(=O)NC7=O)cc6)C5)CC4)CC3)cc2cc1NC(=O)c1ccc2cc(C#N)cnn12 [Example 274, 3-cyano-N-(2-((1R,4r)-4-(4-((1S,3R)-3-(4-(((S)-2,6-dioxopiperidin-3-yl)amino)phenyl)cyclobutyl)piperazin-1-yl)cyclohexyl)-6-(2-hydroxypropan-2-yl)-2H-indazol-5-yl)pyrrolo[1,2-b]pyridazine-7-carboxamide] | 97 | 9.8 | 97 | 1.6 | – | – | – | – | 3.7 | 99 | – | 2 | 64 | – | –
11 | CC(C)(O)c1cc2nn([C@H]3CC[C@H](N4CCN([C@H]5C[C@@H](c6cc(F)c([C@H]7CCC(=O)NC7=O)c(F)c6)C5)CC4)CC3)cc2cc1NC(=O)c1ccc2cc(C#N)cnn12 [Example 363, 3-cyano-N-(2-((1S,4r)-4-(4-((1S,3S)-3-(4-((R)-2,6-dioxopiperidin-3-yl)-3,5-difluorophenyl)cyclobutyl)piperazin-1-yl)cyclohexyl)-6-(2-hydroxypropan-2-yl)-2H-indazol-5-yl)pyrrolo[1,2-b]pyridazine-7-carboxamide] | 95 | 1.2 | 96 | 0.8 | – | – | – | – | 5.9 | 97 | – | 2.2 | 67 | – | –
